Measurements published in US20260286322A1, “PROTEIN TYROSINE P[…] DOMAIN PEPTIDE DIMER FOR NERVOUS SYSTEM REPAIR” (NervGen Pharma Corp., priority 2023, published 2026).

Assays:
[1] = test system: rat model of thoracic traumatic Spinal Cord Injury (SCI); test: Basso, Beattie and Bresnahan (BBB) open-field locomotor rating scale in SCI rats; type: in vivo
Excerpt: The goal of this study is to test the efficacy of a novel peptide dimer (Intracellular Sigma blocking peptide (ISP) dimer according to the present disclosure on behavioral changes in a rat model of thoracic traumatic Spinal Cord Injury (SCI).
(§1) Adult, female Lewis rats (~160 g on arrival) from Envigo were used as the subjects receiving the treatment in the study. The rats were assigned unique identification numbers (PGI ID and tail marks) and housed in ventilated cages. All rats were examined, handled, and weighed prior to initiation of the study to assure adequate health and suitability. During the course of the study, 12/12 light/dark cycles were maintained. The room temperature was maintained between […] and 23° C. with a relative humidity maintained around 50%. Chow and water were provided adlibitum for the duration of the study. The rats were randomly assigned across treatment groups. Body weights were taken twice a week during the study.
(§2) Lyophilized Compound 8 was dissolved in saline and injected s.c. at a volume of 500 μl to animal once daily from day 1-day 49 post spinal cord injury.
The dose concentration was 0.8 mg/ml, corresponding to 400 μg/rat. After reconstitutions, the solution was aliquoted and kept at −20° C. until dosing.
12-13 rats were used in each of the following two groups: • 1. Control group: SCI+Saline • 2. Testing group: SCI+Compound 8 in Saline.
Spinal cord injury (SCI) was introduced to the rats by surgery using the Infinite Horizon (IH) Impactor (200 kDyn force) described by Scheff et al. 2003. The surgery was performed with aseptic procedures in a designated area under deep anesthesia. Rats were anesthetized with isoflurane (4% for induction, 2% for maintenance), and O2 (300 cm^3/min) mixture. Hair was removed from the surgical site with clippers and the skin wase scrubbed with an antiseptic detergent. To maintain body temperature the animals were placed upon a homoeothermic blanket system. The T8 Vertebra of the rat was located externally, and an incision was made exposing the vertebral column from T6-T11. A laminectomy was performed using a surgical microscope to expose the dorsal spinal cord at the thoracic (T8) vertebral level. The vertebral column was stabilized by clamping the nearest rostral and caudal vertebral processes and the injury was produced using the IH impactor device at a 200 kDyn force. After each lesion the IH graphs and impact data were reviewed and recorded, rats presenting an impact force more than 10% higher or lower than expected and/or any abnormality on the force/displacement impact graphs were excluded from the study. Additionally, animals scoring more than 1 points in the Basso, Beattie and Bresnahan (BBB) score scale at 1 days after SCI were excluded for the study as well.
Locomotion changes were assessed using an open-field locomotor test (the Ohio State BBB Locomotor Rating Scale developed by Basso, et al. 1995). During each test, rats were observed moving around an empty wading pool for 4 minutes. Movements of joints in the hind limbs, weight support, and coordination between limbs were scored according to the BBB scale. This scale tracks the progressive recovery of hind-limb function following thoracic SCI. The scale can be divided into three parts reflecting the stages of recovery. […] BBB was assessed on days 1, 4 and 7 post injury and then weekly until completion of the study.
The BBB score scale obtained at day 1 after SCI was used to keep injury consistency. […] At Day 1 after SCI, only animals scoring either 0 (no observable hind-limb movement) or 1 (slight movement of one or two hind-limbs joins) in the BBB scale were enrolled in the study and allocated into treatment groups. The treatments groups were balanced using the BBB score obtained at day 1 after SCI.
Data was analyzed by analysis of variance (ANOVA) followed by post-hoc comparisons where appropriate. An effect was considered significant if p<0.05. […]

[2] = test system: animal model of spinal cord injury (SCI rats); test: Recovery of occasional and frequent walking, inverse Kaplan-Meier on BBB thresholds; type: in vivo, rat
Protocol: as §1
Spinal cord injury (SCI) was introduced to the animals and post-operative care was followed after the injury according to the methods described in Example 3.
as §2
The target dose concentration was 0.8 mg/ml. After reconstitutions, the solution was aliquoted and kept at −20° C. until dosing.
12-13 rats were used in each of the following two groups: • 1) Control group: SCI+Saline • 2) Testing group: SCI+Compound 8 in Saline.
Inverse Kaplan-Meier graphs were generated based on the Basso, Beattie & Bresnaham (BBB) open field locomotor assessment described above in Example 3. […]
Recover occasional walking: Occasional walking is defined as less than or equal to half of the attempted steps are successful, corresponding to a BBB score of 10. The week post-SCI in which an animal achieved a 10 or above was recorded and plotted on the Kaplan Meier graph, as defined above.
Recover frequent walking: Frequent walking is defined as greater than half of the attempted steps are successful and corresponds to a BBB score of 11. The week post-SCI in which an animal achieved an 11 or above was recorded and plotted on the Kaplan Meier graph, as defined above.
Statistical methods: Kaplan Meier curves were analyzed using the log-rank test. Effects of Compound 4 and Compound 8 on the locomotor function and bladder function were assessed for statistical significance by repeated measures ANOVA (RM-ANOVA) with Geisser-Greenhouse correction for non-sphericity of data and Tukey correction for multiple comparisons or by nonparametric Friedman's test with Dunn's multiple comparison correction. The choice of RM ANOVA or Friedman's test for the analysis of each type of data (BBB scores, BBB subscores, and bladder scores) was determined by the normality of data distribution tests performed for each of the functional scores across all treatment cohorts. […]

[3] = week 7 post-SCI, 13 rats in group

“TAT-Cys-rodent PTPRS wedge domain homodimer [Compound 8]” was tested, and the “locomotor performance measured with weekly average BBB scores vs saline alone” value ([1]; RM ANOVA, Tukey, p<0.0001 for each compound) was “significant improvement”, the “improving the BBB scores, compared with Compound 4” value ([1]; RM ANOVA, Tukey, p=0.0017) was “more efficacious” and the “recovery of movements of joints in the hind limbs, weight support, and coordination between limbs” value ([1]; SCI rats, vs saline) was “promotes the recovery”. The “share of rats achieving BBB scores of 10 or above” value ([1]; after 70 days post SCI, group (3)) was “More than half”, the “number of rats having BBB scores of 6 to 7” value ([1]; day 7 post-SCI, 13 rats in group, 400 μg/rat s.c. once daily) was 6 rats and the “percentage of rats that achieved a BBB score of 11” value ([1]; day 77 post-SCI) was “more than 20%”. For the same substance, the “percentage of rats that achieved a BBB score of 11” value ([1]; day 84 post-SCI) was “about 50%”, the “maximum BBB score in the cohort” value ([1]; end of study) was 11 and the “number of rats with a BBB score of 10” value [1, 3] was 6 rats. The “number of rats with a BBB score of 11” value [1, 3] was 2 rats, the “rats with BBB scores of about 10 or 11” value ([1]; week 12 post-SCI) was 8 out of 13 and the “time at which recovery of frequent walking was first detected” value ([2]; post injury) was “after three weeks post injury”. The “time at which recovery of occasional walking reached 50%” value ([2]; post-SCI) was “less than 6 week”, the “recovery of frequent walking (BBB score of 11 or above), accumulated percent of group” value ([2]; week 12 post-SCI) was about 50% and the “recovery of occasional walking (BBB score of 10 or above), accumulated percent of group” value ([2]; week 12 post-SCI, 0.8 mg/ml, 500 μl s.c. once daily day 1-49) was about 80%.
